# Measured values as given in US9919002B2, “Methods and constructs for compound delivery” (North Carolina State University, priority 2013, dated 2018).
# What was measured:
# [1] = system: MDA-MB-231 tumor xenograft; experiment: In vivo antitumor efficacy of Gelipo formulations; conditions: i.v. 2 mg/kg Dox every other day for 12 days
# Protocol: All animals were treated in accordance with the Guide for Care and Use of Laboratory Animals, approved by local committee. The female nude mice were subcutaneously inoculated in the back with MDA-MB-231 cells (1×10^7 cells/mouse) for the construction of the tumor xenograft model. The tumor size was monitored by a fine caliper and the tumor volume (V) was calculated as V=L×W^2/2, where L and W were the length and width of the tumor, respectively.
# When the tumor volume reached to 50 mm^3, the mice were weighed, randomly divided into 4 groups, and intravenously administrated with the Dox solution (2 mg/kg), Dox-Gelipo (2 mg/kg), Dox/TRAIL-Gelipo (2 mg/kg Dox, 0.04 mg/kg TRAIL) and saline every other day for 12 days. The tumor size and body weight of the mice were measured at the meantime. At Day 14, the tumor were harvested from the mice after euthanasia, washed by saline thrice and then fixed in 10% neutral buffered formalin (NBF). For HE staining, formalin-fixed tumors were embedded in paraffin blocks and visualized by optical microscope (DM5500B, Leica). For TUNEL apoptosis staining, the fixed tumor sections were stained by the In Situ Cell Death Detection Kit (Roche Applied Science) according to the manufacturer's protocol. Hoechst 33342 was used for nuclear nuclear counterstaining. The stained tumor slides were observed by fluorescence microscope (IX71, Olympus).
# MDA-MB-231 cells = experiment: Cell apoptosis assay (Annexin V-FITC, TUNEL), Example 2; assay type: cell-based, human; conditions: 12 h
# Protocol: Apoptosis of MDA-MB-231 cells was detected using the Annexin V-FITC Apoptosis Detection Kit (BD Biosciences) and APO-BrdU TUNEL Assay Kit (Life Technologies), respectively. The cells (1×10^5 cells/well) were seeded in 6-well plates and cultured for 48 h. For Annexin V-FITC assay, the cells were incubated with different formulations for 12 h, including free TRAIL (2 or 20 ng/mL), TRAIL-Gelipo (20 ng/mL) with or without HAase-treatment, Dox-R8H3-L (100 ng/mL), TRAIL/Dox-Gelipo (2 ng/mL TRAIL, 100 ng/mL Dox) with HAase-treatment. For TUNEL assay, the cells were incubated with free TRAIL (2 ng/mL), Dox-R8H3-L (100 ng/mL) and TRAIL/Dox-Gelipo (2 ng/mL TRAIL, 100 ng/mL Dox) with HAase-treatment for 20 h, respectively. The following procedures were performed in accordance with the manufacturers' protocols. Finally, for Annexin V-FITC assay, the cells were analyzed by flow cytometry (BD FACSCalibur), while for TUNEL assay, the cells were observed by fluorescence microscope (IX71, Olympus).
# HAase = experiment: In vitro HAase-mediated TRAIL release and CD spectra; assay type: physicochemical; conditions: TRAIL released from Gelipo versus native TRAIL
# Protocol: 500 μL of rhodamine-labeled TRAIL-loaded Gelipo (r-TRAIL-Gelipo) was incubated with 500 μL of HAase (1 mg/mL) at pH 6.5 in a 37° C. water bath. At prearranged time intervals, free r-TRAIL in the filtrate was harvested using centrifugal filters (30K MWCO) (Millipore). The fluorescence intensity of r-TRAIL was determined at 585 nm with an excitation wavelength of 552 nm by a microplate reader (Infinite M200 PRO, Tecan). Additionally, the far-UV CD spectra of the native TRAIL and the released TRAIL from TRAIL Gelipo were obtained using a Circular Dichroism Spectrometer (Aviv).
# [2] = 20 ng/mL TRAIL, Annexin V-FITC/PI
Molecule,Tumor growth compared with saline [1],Apoptosis ratio (MDA-MB-231 cells; 2 ng/mL TRAIL) [%],Apoptosis ratio (MDA-MB-231 cells; [2]) [%],Viability (MDA-MB-231 cells; [2]) [%],Secondary structure of released TRAIL (CD spectrum) (HAase)
"COc1cccc2c1C(=O)c1c(O)c3c(c(O)c1C2=O)C[C@@](O)(C(=O)CO)C[C@@H]3O[C@H]1C[C@H](N)[C@H](O)[C@H](C)O1 [Dox solution, doxorubicin]",remarkably suppressed,–,–,–,–
free TRAIL: His-ILZ-TRAIL (residues 114-281) produced in E. coli; TNF-related apoptosis-inducing ligand,–,36.48,51.71,32.30,no noticeable conformational changes in the secondary structure
